The values below come from patent US20070149519A1, “Benzimidazol substituted thiopene derivatives with activity on ikk3” (priority 2004, published 2007).

In this assay the target is T1, Recombinant human IKK3 (Homo sapiens, UniProt Q14164).
T1 construct: FLAG; made in house
T1 sequence (Q14164 1-716): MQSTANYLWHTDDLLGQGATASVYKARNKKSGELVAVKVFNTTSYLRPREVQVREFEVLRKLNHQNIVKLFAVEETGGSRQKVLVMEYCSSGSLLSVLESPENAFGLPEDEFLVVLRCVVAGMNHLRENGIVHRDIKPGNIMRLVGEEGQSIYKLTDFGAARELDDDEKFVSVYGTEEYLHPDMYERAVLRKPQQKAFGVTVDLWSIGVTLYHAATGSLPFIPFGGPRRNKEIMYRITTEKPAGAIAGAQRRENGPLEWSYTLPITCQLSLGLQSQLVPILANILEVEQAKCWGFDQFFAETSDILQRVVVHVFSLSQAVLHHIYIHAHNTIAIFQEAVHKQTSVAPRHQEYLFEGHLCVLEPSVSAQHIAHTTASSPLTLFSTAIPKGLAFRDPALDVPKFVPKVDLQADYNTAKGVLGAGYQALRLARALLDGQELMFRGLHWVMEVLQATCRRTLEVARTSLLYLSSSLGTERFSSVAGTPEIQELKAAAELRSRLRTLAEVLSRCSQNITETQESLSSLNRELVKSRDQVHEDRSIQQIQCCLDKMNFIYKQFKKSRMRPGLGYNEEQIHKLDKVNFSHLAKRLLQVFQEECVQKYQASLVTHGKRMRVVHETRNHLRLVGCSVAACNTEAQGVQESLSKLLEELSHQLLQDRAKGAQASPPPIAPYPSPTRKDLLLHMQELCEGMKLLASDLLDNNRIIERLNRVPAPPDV
In words: IKK3 TR-FRET kinase assay. The class given is biochemical. The note with it: IKK3 15 nM, GST-IκBα 25 nM, ATP 2 μM, 15 minutes at room temperature. On the procedure:
Recombinant human IKK3 was expressed in baculovirus as a FLAG tagged fusion protein, and its activity was assessed using a time-resolved fluorescence resonance energy transfer (TR-FRET) assay. Briefly, IKK3 (15 nM final) diluted in assay buffer (50 mM HEPES, 10 mM MgCl2, 1 mM CHAPS pH 7.4 with 1 mM DTT and 0.01% w/v BSA) was added to wells containing various concentrations of compound or DMSO vehicle (3% final). The reaction was initiated by the addition of GST-IκBα substrate (25 nM final)/ATP (2 μM final), in a total volume of 30 μl. The reaction was incubated for 15 minutes at room temperature, then terminated by the addition of 15 μl of 50 mM EDTA. Detection reagent (15 μl) in buffer (100 mM HEPES pH 7.4, 150 mM NaCl and 0.1% w/v BSA) containing antiphosphoserine-IκBα-32/36 monoclonal antibody 12C2 (Cell Signalling Technology, Massachusetts, USA) labelled with W-1024 europium chelate (Wallac OY, Turku, Finland), and an APC-labelled anti-GST antibody (Prozyme, San Leandro, Calif., USA) was added and the reaction was further incubated for 45 minutes at room temperature. The degree of phosphorylation of GST-IκBα was measured using a Packard Discovery plate reader (Perkin-Elmer Life Sciences, Pangbourne, UK) as a ratio of specific 665 nm energy transfer signal to reference europium 620 nm signal.
For `COc1cc2c(cc1OCCN1CCOCC1)ncn2-c1cc(OCc2ccccc2C(F)(F)F)c(C#N)s1` [Example 7, 5-(6-(Methyloxy)-5-([2-(4-morpholinyl)ethyl]oxy)-1H-benzimidazol-1-yl)-3-({[2-(trifluoromethyl)phenyl]methyl}oxy)-2-thiophene carbonitrile], the IC50 (as a rule, the concentration at which inhibition is half-maximal) is below 1000 nM.

For the compound `COc1cc2ncn(-c3cc(OCc4cccs4)c(C#N)s3)c2cc1OC` [Example 27, 5-[5,6-bis(methyloxy)-1H-benzimidazol-1-yl]-3-[(2-thienylmethyl)oxy]-2-thiophenecarbonitrile], the IC50 was below 1000 nM.

Consider `N#Cc1sc(-n2cnc3ccccc32)cc1OCc1ccccc1` [Example 4, 5-(1H-Benzimidazol-1-yl)-3-[(phenylmethyl)oxy]-2-thiophenecarbonitrile], for which the half-inhibitory concentration (IC50) lay within 1000 to 10000 nM.

As for `COc1cc2ncn(-c3cc(OCCN4CCCC4=O)c(C#N)s3)c2cc1OC` [Example 21, 5-[5,6-bis(methyloxy)-1H-benzimidazol-1-yl]-3-{[2-(2-oxo-1-pyrrolidinyl)ethyl]oxy}-2-thiophenecarbonitrile], the IC50 was below 1000 nM.

With `COc1cc2ncn(-c3cc(OCc4ccc5nnn(C)c5c4)c(C#N)s3)c2cc1OC` [Example 6, 5-[5,6-bis(methyloxy)-1H-benzimidazol-1-yl]-3-{[(1-methyl-1H-1,2,3-benzotriazol-6-yl)methyl]oxy}-2-thiophenecarbonitrile], the IC50 is below 1000 nM.

Turning to `COc1cc2ncn(-c3cc(OCc4ccc(CO)cc4)c(C#N)s3)c2cc1OC` [Example 1, 5-[5,6-Bis(methyloxy)-1H-benzimidazol-1-yl]-3-({[4-(hydroxymethyl)phenyl]methyl}oxy)-2-thiophenecarbonitrile], the half-inhibitory concentration (IC50) is below 1000 nM.

In the case of `CC[C@@H](C)Oc1cc(-n2cnc3cc(OC)c(OC)cc32)sc1C#N` [Example 28, 5-[5,6-bis(methyloxy)-1H-benzimidazol-1-yl]-3-{[(1 R)-1-methylpropyl]oxy}-2-thiophenecarbonitrile], the 50% inhibitory concentration (IC50) was in the range of 1000 to 10000 nM.

On to `COc1cc2ncn(-c3cc(OCCOc4ccccc4)c(C#N)s3)c2cc1OC` [Example 24, 5-[5,6-bis(methyloxy)-1H-benzimidazol-1-yl]-3-{[2-(phenyloxy)ethyl]oxy}-2-thiophenecarbonitrile], for which the IC50 is below 1000 nM.

On to `COc1cc2ncn(-c3cc(OCCN4CCOCC4)c(C#N)s3)c2cc1OC` [Example 20, 5-[5,6-bis(methyloxy)-1H-benzimidazol-1-yl]-3-{[2-(4-morpholinyl)ethyl]oxy}-2-thiophenecarbonitrile], for which the 50% inhibitory concentration (IC50) is 1000 to 10000 nM.

Turning to `N#Cc1sc(-n2cnc3cc(Cl)ccc32)cc1OCc1ccccc1` [Example 10, 5-(5-Chloro-1H-benzimidazol-1-yl)-3-[(phenylmethyl)oxy]-2-thiophenecarbonitrile], the IC50 is 1000 to 10000 nM.

Take `COc1cc2ncn(-c3cc(OCC4CCCCC4)c(C#N)s3)c2cc1OC` [Example 14, 5-[5,6-Bis(methyloxy)-1H-benzimidazol-1-yl]-3-[(cyclohexylmethyl)oxy]-2-thiophenecarbonitrile]: the IC50 is below 1000 nM.

As for `COc1cc2ncn(-c3cc(OCc4cc(F)ccc4F)c(C#N)s3)c2cc1OC` [Example 8, 5-[5,6-Bis(methyloxy)-1H-benzimidazol-1-yl]-3-{[(2,5-difluorophenyl)methyl]oxy}-2-thiophenecarbonitrile], the half-maximal inhibitory concentration (IC50) was below 1000 nM.

With `Cc1ccccc1COc1cc(-n2cnc3ccccc32)sc1C#N` [Example 3, 5-(1H-Benzimidazol-1-yl)-3-{[(2-methylphenyl)methyl]oxy}-2-thiophenecarbonitrile], the 50% inhibitory concentration (IC50) is below 1000 nM.

Turning to `COc1ccccc1COc1cc(-n2cnc3cc(OC)c(OC)cc32)sc1C#N` [Example 19, 5-[5,6-bis(methyloxy)-1H-benzimidazol-1-yl]-3-({[2-(methyloxy)phenyl]methyl}oxy)-2-thiophenecarbonitrile], the half-maximal inhibitory concentration (IC50) is 1000 to 10000 nM.

Turning to `N#Cc1sc(-n2cnc3cc(C(=O)NCCN4CCOCC4)ccc32)cc1OCc1ccccc1C(F)(F)F` [Example 15, 1-[5-cyano-4-({[2-(trifluoromethyl)phenyl]methyl}oxy)-2-thienyl]-N-[2-(4-morpholinyl)ethyl]-1H-benzimidazole-5-carboxamide], the half-maximal inhibitory concentration (IC50) was below 1000 nM.

For the compound `COc1cc2c(cc1OCCCO)ncn2-c1cc(OCc2ccccc2C(F)(F)F)c(C#N)s1` [Example 12, 5-[5-[(3-Hvdroxypropyl)oxy]-6-(methyloxy)-1H-benzimidazol-1-yl]-3-({[2-(trifluoromethyl)phenyl]methyl}oxy)-2-thiophenecarbonitrile], the concentration for half-maximal inhibition (IC50) was below 1000 nM.

On to `COc1cc2ncn(-c3cc(OCc4ccccc4OC(F)(F)F)c(C#N)s3)c2cc1OC` [Example 18, 5-[5,6-bis(methyloxy)-1H-benzimidazol-1-yl]-3-[({2-[(trifluoromethyl)oxy]phenyl}methyl)oxy]-2-thiophenecarbonitrile], for which the IC50 was below 1000 nM.

In the case of `COc1cc2ncn(-c3cc(OCc4ccccc4S(C)(=O)=O)c(C#N)s3)c2cc1OC` [Example 9, 5-[5,6-Bis(methyloxy)-1H-benzimidazol-1-yl]-3-({[2-(methylsulfonyl)phenyl]methyl}oxy)-2-thiophenecarbonitrile], the concentration for half-maximal inhibition (IC50) is below 1000 nM.

For `COc1cc2ncn(-c3cc(O[C@H](C)c4ccccc4Cl)c(C#N)s3)c2cc1OC` [Example 2, 5-[5,6-Bis(methyloxy)-1H-benzimidazol-1-yl]-3-{[(1R)-1-(2-chlorophenyl)ethyl]oxy}-2-thiophenecarbonitrile], the half-inhibitory concentration (IC50) fell in the range of 1000 to 10000 nM.

For the compound `COc1cc2ncn(-c3cc(O[C@H](C)c4ccccc4C(F)(F)F)c(C#N)s3)c2cc1OC` [Example 16, 5-[5,6-Bis(methyloxy)-1H-benzimidazol-1-yl]-3-({(1 R)-1-[2-(trifluoromethyl)phenyl]ethyl}oxy)-2-thiophenecarbonitrile], the IC50 lay within 1000 to 10000 nM.

For the compound `COc1cc2ncn(-c3cc(OCC4CCCO4)c(C#N)s3)c2cc1OC` (stereo not shown) [Example 22, 5-[5,6-bis(methyloxy)-1H-benzimidazol-1-yl]-3-[(tetrahydro-2-furanylmethyl)oxy]-2-thiophenecarbonitrile], the half-inhibitory concentration (IC50) lay in the range of 1000 to 10000 nM.

Take `COc1cc2ncn(-c3cc(OCC4CCCCO4)c(C#N)s3)c2cc1OC` (stereo not shown) [Example 23, 5-[5,6-bis(methyloxy)-1H-benzimidazol-1-yl]-3-[(tetrahydro-2 H-pyran-2-ylmethyl)oxy]-2-thiophenecarbonitrile]: the IC50 is below 1000 nM.

With `CCC[C@H](Oc1cc(-n2cnc3cc(OC)c(OC)cc32)sc1C#N)c1ccccc1Cl` [Example 25, 5-[5,6-bis(methyloxy)-1H-benzimidazol-1-yl]-3-{[(1S)-1-(2-chlorophenyl)butyl]oxy}-2-thiophenecarbonitrile], the IC50 was below 1000 nM.

For the compound `COc1cc2ncn(-c3cc(OCc4ccncc4Br)c(C#N)s3)c2cc1OC` [Example 13, 5-[5,6-Bis(methyloxy)-1H-benzimidazol-1-yl]-3-{[(3-bromo-4-pyridinyl)methyl]oxy}-2-thiophenecarbonitrile], the IC50 is 1000 to 10000 nM.

In the case of `COc1cc2ncn(-c3cc(OCCc4ccccc4)c(C#N)s3)c2cc1OC` [Example 17, 5-[5,6-bis(methyloxy)-1H-benzimidazol-1-yl]-3-[(2-phenylethyl)oxy}-2-thiophenecarbonitrile], the half-inhibitory concentration (IC50) was below 1000 nM.

With `COc1cc2ncn(-c3cc(OCc4ccccc4C(F)(F)F)c(C#N)s3)c2cc1OC` [Example 5, 5-[5,6-Bis(methyloxy)-1H-benzimidazol-1-yl]-3-({[2-(trifluoromethyl)phenyl]methyl}oxy)-2-thiophenecarbonitrile], the half-maximal inhibitory concentration (IC50) was below 1000 nM.

On to `COc1cc2ncn(-c3cc(OCc4ccsc4)c(C#N)s3)c2cc1OC` [Example 26, 5-[5,6-bis(methyloxy)-1H-benzimidazol-1-yl]-3-[(3-thienylmethyl)oxy]-2-thiophenecarbonitrile], for which the IC50 was below 1000 nM.

Regarding `COc1cc2ncn(-c3cc(OCc4c(F)cccc4F)c(C#N)s3)c2cc1OC` [Example 11, 5-[5,6-bis(Methyloxy)-1H-benzimidazol-1-yl]-3-{[(2,6-difluorophenyl)methyl]oxy}-2-thiophenecarbonitrile], the IC50 is below 1000 nM.
